molecular target: Replicase polyprotein 1ab (Severe acute respiratory syndrome coronavirus 2) (UniProt P0DTD1); experiment: Inhibition of SARS-CoV-2 3CL-Pro proteolytic cleavage of a dual-labeled substrate by FRET at 1mM DTT.; assay type: functional; set-up: assay stage

First: Cc1cc(C)cc(N2C(=O)CC(Sc3nc[nH]n3)C2=O)c1 (centres undefined)
Second: Cc1ccc(C)c(-n2sc3cc(F)ccc3c2=O)c1
The IC50 relative of the first is higher: > 20 µM for the first, < 0.02 µM for the second.

First: O=C(NC(=S)N1CCCc2ccccc21)c1ccccc1
Second: O=c1c2ccccc2sn1-c1ccccc1
The IC50 relative of the first is higher: > 20 µM for the first, < 0.02 µM for the second.

Compared with `CCCCn1c(NC(=O)c2cccs2)c(C#N)c2nc3ccccc3nc21`, `c1ccc2sc(SSc3nc4ccccc4s3)nc2c1` is lower in IC50 relative: > 20 µM for the first, 0.537 µM for the second.

Going from `O=C(CCl)c1ccccc1` to `S=C=NCc1ccccc1`, the IC50 relative rises from 0.246 µM to > 20 µM.

`O=C1C(Cl)=C(N2CCOCC2)C(=O)N1c1ccc(Cl)c(Cl)c1` and `O=C(c1ccc(Cl)cc1)c1cc([N+](=O)[O-])ccc1N1CCOCC1` cannot be ordered by IC50 relative: > 20 µM for the first, > 20 µM for the second.

Going from `Nc1ccc(O)c2ncccc12` to `Cc1ccc(-n2sc3ccccc3c2=O)cc1`, the IC50 relative falls from > 20 µM to < 0.02 µM.

Going from `CCOc1cc(C(Nc2cc(C)ccn2)c2ccc3cccnc3c2O)ccc1OC` (centres undefined) to `CCN1CCN(C(c2ccc(C(F)(F)F)cc2)c2ccc3cccnc3c2O)CC1` (centres undefined), the IC50 relative falls from > 20 µM to 1.34 µM.

`Sc1nnnn1-c1ccccc1` and `Sc1nnc(Nc2ccccc2)s1` cannot be ordered by IC50 relative: > 20 µM for the first, > 20 µM for the second.

Going from `O=C(/C=C/c1ccc2ccccc2n1)c1ccncc1` to `Cc1ccc(S(=O)(=O)N[C@@H](Cc2ccccc2)C(=O)CCl)cc1`, the IC50 relative rises from 0.191 µM to 0.839 µM (4.4-fold).

`COc1ccc2[nH]c([S+]([O-])Cc3ncc(C)c(OC)c3C)nc2c1` (centres undefined) and `COc1ccnc(C[S+]([O-])c2nc3cc(OC(F)F)ccc3[nH]2)c1OC` (centres undefined) cannot be ordered by IC50 relative: > 20 µM for the first, > 20 µM for the second.

Compared with `Oc1cc2c(cc1C(c1ccc(C(F)(F)F)cc1)N1CCOCC1)OCO2` (centres undefined), `CN1CCN(C(=O)c2ccc(-c3ccc4c(C=O)c(O)ccc4c3)s2)CC1` is lower in IC50 relative: > 20 µM for the first, 5.65 µM for the second.

`Oc1cc2c(cc1O)C(c1ccccc1)CNCC2` (centres undefined) and `O=c1cc(-c2ccccc2)oc2cc(O)c(O)c(O)c12` cannot be ordered by IC50 relative: > 20 µM for the first, > 20 µM for the second.

`CCN(CC)S(=O)(=O)c1cccc(-n2sc3ccccc3c2=O)c1` and `CN(C)S(=O)(=O)c1cccc(-n2sc3ccccc3c2=O)c1` cannot be ordered by IC50 relative: < 0.02 µM for the first, < 0.02 µM for the second.

Going from `Nc1nc(S)c2ncn(C3OC(CO)C(O)C3O)c2n1` (centres undefined) to `COc1ccc2[nH]c3c(S)ncnc3c2c1`, the IC50 relative rises from 1.45 µM to > 20 µM.

Compared with `CC1=CC(=O)c2ccccc2C1=O`, `Cn1sc(=O)n(Cc2ccccc2)c1=O` is lower in IC50 relative: > 20 µM for the first, < 0.02 µM for the second.

`O=C(CC1Sc2ncnn2C1=O)Nc1ccc(Br)cc1` (centres undefined) and `O=C(Nc1ccccc1)Nc1ccc(-c2ccc(C(=O)[C@@H]3CCC[C@H]3C(=O)O)cc2)cc1` cannot be ordered by IC50 relative: > 20 µM for the first, > 20 µM for the second.

Compared with `Cc1c(OCC(F)(F)F)ccnc1C[S+]([O-])c1nc2ccccc2[nH]1` (centres undefined), `CCOC(=O)c1c(N)sc(-c2ccccc2)c1C` is lower in IC50 relative: > 20 µM for the first, 3.61 µM for the second.

Going from `Cc1cc(-c2ccc(/N=N/c3ccc4c(S(=O)(=O)O)cc(S(=O)(=O)O)c(N)c4c3O)c(C)c2)ccc1/N=N/c1ccc2c(S(=O)(=O)O)cc(S(=O)(=O)O)c(N)c2c1O` to `COc1ncc(-c2ccc3nccc(-c4ccnnc4)c3c2)cc1NS(=O)(=O)c1ccc(F)cc1F`, the IC50 relative rises from 0.0219 µM to > 20 µM.

`S=C=Nc1cccc(NC(=S)NCCCCNC(=S)Nc2cccc(N=C=S)c2)c1` and `CC(Cc1ccc(O)c(O)c1)C(C)Cc1ccc(O)c(O)c1` (centres undefined) cannot be ordered by IC50 relative: > 20 µM for the first, > 20 µM for the second.

First: O=[N+]([O-])c1ccc(Sc2cccc[n+]2[O-])c2nonc12
Second: O=C(c1cccs1)c1no[n+]([O-])c1C(=O)c1cccs1
The IC50 relative of the first is lower: 0.53 µM for the first, > 20 µM for the second.

`Cc1c(-c2ccc(N3CCc4cccc(C(=O)Nc5nc6ccccc6s5)c4C3)nc2C(=O)O)cnn1CC12CC3CC(CC(C3)C1)C2` and `Cc1cc(-c2ccc(/C=C3/S/C(=N\c4ccc(Cl)c(C(=O)O)c4)NC3=O)o2)c([N+](=O)[O-])cc1C` cannot be ordered by IC50 relative: > 20 µM for the first, > 20 µM for the second.

Going from `Cc1ccc(-n2sc(=O)n(Cc3ccc(F)cc3)c2=O)cc1` to `COc1cc(N(C)C)cc(CN(C)CCc2ccc([N+](=O)[O-])cc2)c1O`, the IC50 relative rises from 0.148 µM to > 20 µM.

Compared with `COC(=O)CC[C@H](NC(=O)[C@H](CC(=O)OC)NC(=O)OCc1ccccc1)C(=O)N[C@H](C(=O)N[C@@H](CC(=O)OC)C(=O)CF)C(C)C`, `CC(C)(C)OC(=O)NCCc1nnc(S(=O)(=O)Cc2ccc(Cl)cc2Cl)o1` is higher in IC50 relative: < 0.02 µM for the first, 7.29 µM for the second.

First: Sc1nnc(-c2ccccc2Cl)o1
Second: COc1ccc2[nH]c(S)nc2c1
The IC50 relative of the first is lower: 7.71 µM for the first, > 20 µM for the second.

Compared with `O=C1C(Cl)=C(Cl)C(=O)C(Cl)=C1Cl`, `O=C(O)c1c(Cl)c(Cl)c(Cl)c(Cl)c1-c1c2cc(I)c(=O)c(I)c-2oc2c(I)c(O)c(I)cc12` is higher in IC50 relative: 0.183 µM for the first, > 20 µM for the second.

`NC(Cc1cc(O)c(O)cc1O)C(=O)O` (racemic) and `O=c1c(O)cccc2cc(O)c(O)c(O)c12` cannot be ordered by IC50 relative: > 20 µM for the first, > 20 µM for the second.

Going from `O=C(O)[C@@H](S)[C@@H](S)C(=O)O` to `CCN(CC)C(=S)S`, the IC50 relative rises from 0.0836 µM to > 20 µM.

— ChEMBL document CHEMBL5303710, “ECBD screening data for assay EOS300044” (2022)
